# Like-named read-outs stand apart in the source and are kept apart here.
# Legend:
# [1] = system: Salmonella typhimurium TA1535; format: cell-based
# [2] = system: Salmonella typhimurium TA102
# Procedure: Five strains of Salmonella typhimurium, TA98, TA102, TA100, TA1537, and TA1535, were obtained from Moltox (Boone, NC, USA). Mutagenicity was evaluated by the incorporation method in the presence or absence of S9 metabolic activation. A volume of 100 µL of each test bacterial culture (10^9 cells/mL), 2 mL soft agar (0.6% agar, 0.5% NaCl, 5 mM histidine, and […], pH 7.4, 40–50 °C), 0.5 mL S9 mixture (if necessary), and AzP were mixed well in a test tube. […] The revertant colonies were counted, and a positive mutagenic response was identified when (i) the number of revertants was at least double the spontaneous yield; (ii) a statistical significance (p ≤ 0.05) was found; and (iii) a reproducible positive dose response was present.
# acetyl-histone H3 = experiment: Western blot of acetyl-histone H3 in IEC-6 cells; format: cell-based, Rat; conditions: AzP 5, 10 and 20 μM, 24 h
# Procedure: Figure 3 In vitro histone deacetylase (HDAC) activity. […] Cell lysates were used for acetyl-histone H3 protein expression by Western blot. Data are expressed as means ± SD from 3 independent experiments. *** p < 0.001 as compared with the resting and ** p < 0.01 as compared with the resting (B).
# IEC-6 cells were incubated in different AzP concentrations with/without LPS stimulation for 24 h. The homogenate from cells or tissues was then centrifuged at 14,000× g for 10 min at 4 °C and the supernatant was collected. Protein separation was performed using 10% reducing SDS-PAGE, electrotransferred onto polyvinylidene difluoride (PVDF), and immunoblotted with antibodies against inflammatory proteins as well as β-actin as control. Densitometry was performed using BioLight software V2000.01 (Uhldingen-Mühlhofen, Germany). The optical density of specific protein was normalized to an internal control and expressed as a ratio to control.
# HDAC1 = target: T1, HDAC1 (Homo sapiens, UniProt Q13547); experiment: HDAC fluorometric activity assay, HDAC1; format: biochemical
# T1 construct: purchased Enzo Life Sciences, Farmingdale, NY, USA
# Procedure: (§1) Pan HDAC enzyme (all the known class I HDACs-HDAC1, HDAC2, HDAC3, HDAC8 and class II HDACs 4-7, 9 and 10), HDAC subtype 1, 3 and 4 activity were determined by using the HDAC fluorometric cellular activity assay (Enzo Life Sciences, Farmingdale, NY, USA) according to the manufacturer’s protocol. […] Percent activity for each of the test compounds is calculated as follows:
# (§2) Activity = {(Sc − B)/(S° − B)} × 100. […] IC50 was then calculated and represented as mean ± SD.
# [3] = system: Salmonella typhimurium TA1537; experiment: Salmonella/microsome reversion assay (Ames test), TA1537; format: cell-based
# Pan HDAC enzyme = experiment: HDAC fluorometric activity assay, pan HDAC; format: biochemical
# Procedure: as §1, §2
# [4] = system: Salmonella typhimurium TA98; experiment: Salmonella/microsome reversion assay (Ames test), TA98; format: cell-based
# IEC-6 cells = experiment: Cisplatin-reduced IEC-6 cell viability; format: cell-based, Rat; conditions: data not shown
# male ICR mice = experiment: Micronucleus test; conditions: mouse, in vivo
# Procedure: Male ICR mice (n = 5) were administered AzP orally by gavage, at doses of 5, 50, and 500 mg/kg body weight. […] At 24, 48, and 72 h after dosing, 2-μL blood samples were collected from the tail vein onto a slide stained with acridine orange (40 μg/mL). The ratio (%) of polychromatic erythrocytes (PCEs) to total erythrocytes was determined using fluorescence microscopy. In addition, the frequency of micronucleated polychromatic erythrocytes (MNPCEs; ‰) was counted to a total of 1000 erythrocytes or PCEs per animal.
# HDAC4 = target: T2, HDAC4 (Homo sapiens, UniProt P56524); experiment: HDAC fluorometric activity assay, HDAC4; format: biochemical
# T2 construct: purchased Enzo Life Sciences, Farmingdale, NY, USA
# Procedure: as §1, §2
# T1 sequence (Q13547 whole entry, species assumed): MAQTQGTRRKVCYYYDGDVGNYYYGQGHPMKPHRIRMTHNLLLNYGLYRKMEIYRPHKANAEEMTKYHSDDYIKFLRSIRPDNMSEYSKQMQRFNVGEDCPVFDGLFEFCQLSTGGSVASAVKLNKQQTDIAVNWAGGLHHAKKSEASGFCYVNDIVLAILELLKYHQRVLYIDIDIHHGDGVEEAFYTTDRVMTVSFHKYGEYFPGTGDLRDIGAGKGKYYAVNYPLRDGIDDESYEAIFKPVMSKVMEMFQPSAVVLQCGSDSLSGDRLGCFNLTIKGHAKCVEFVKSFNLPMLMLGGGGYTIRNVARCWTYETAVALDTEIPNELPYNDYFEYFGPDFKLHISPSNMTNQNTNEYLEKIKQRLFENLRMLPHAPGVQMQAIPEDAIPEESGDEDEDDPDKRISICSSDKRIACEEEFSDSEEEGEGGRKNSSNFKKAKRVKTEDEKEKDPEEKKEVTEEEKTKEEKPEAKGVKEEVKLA
# T2 sequence (P56524 whole entry, species assumed): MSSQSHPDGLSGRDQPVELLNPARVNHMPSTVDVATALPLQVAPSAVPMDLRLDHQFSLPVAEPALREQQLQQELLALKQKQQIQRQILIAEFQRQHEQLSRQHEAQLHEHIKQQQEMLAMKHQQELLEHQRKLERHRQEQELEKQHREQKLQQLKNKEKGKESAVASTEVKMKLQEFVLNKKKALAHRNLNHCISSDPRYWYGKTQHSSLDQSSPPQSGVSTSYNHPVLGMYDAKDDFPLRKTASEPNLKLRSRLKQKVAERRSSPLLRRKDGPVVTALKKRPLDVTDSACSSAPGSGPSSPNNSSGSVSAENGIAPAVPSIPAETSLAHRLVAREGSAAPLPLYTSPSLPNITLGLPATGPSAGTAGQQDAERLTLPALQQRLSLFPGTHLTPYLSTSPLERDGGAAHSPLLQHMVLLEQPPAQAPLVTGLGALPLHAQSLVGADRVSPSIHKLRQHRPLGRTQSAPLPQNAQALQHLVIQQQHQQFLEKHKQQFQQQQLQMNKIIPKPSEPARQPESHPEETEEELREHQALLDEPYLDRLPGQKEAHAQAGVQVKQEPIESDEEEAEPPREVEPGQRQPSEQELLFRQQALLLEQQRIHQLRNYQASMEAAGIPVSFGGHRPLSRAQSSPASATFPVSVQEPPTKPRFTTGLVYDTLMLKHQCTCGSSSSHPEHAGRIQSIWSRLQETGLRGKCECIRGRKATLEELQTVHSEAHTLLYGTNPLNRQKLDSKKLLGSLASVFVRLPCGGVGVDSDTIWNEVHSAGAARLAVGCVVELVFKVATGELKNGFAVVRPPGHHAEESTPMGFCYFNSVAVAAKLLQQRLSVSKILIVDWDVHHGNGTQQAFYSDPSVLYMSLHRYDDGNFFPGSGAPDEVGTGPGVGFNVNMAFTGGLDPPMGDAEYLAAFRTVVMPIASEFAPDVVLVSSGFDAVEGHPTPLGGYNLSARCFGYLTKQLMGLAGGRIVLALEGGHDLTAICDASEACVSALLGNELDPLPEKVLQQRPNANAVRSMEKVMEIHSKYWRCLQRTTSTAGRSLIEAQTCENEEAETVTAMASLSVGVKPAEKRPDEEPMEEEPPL
structure (smiles),measurement,setting,value
"CC(C)(C)OC(=O)NC(Cc1ccc(OCc2ccccc2)cn1)C(=O)Nc1ccc(CCCC(=O)NO)cc1 (centres unmarked) [AzP, Azatyrosine-phenylbutyric hydroxamides]","Ames test result, TA1535 (-S9)",[1]; -S9,Negative
same,Revertant colonies per plate (-S9) TA1535,[1]; AzP 0.0195 mg/plate,52±1.2
same,Revertant colonies per plate (+S9) TA1535,[1]; AzP 0.0391 mg/plate,46.5±3.3
same,Revertant colonies per plate (-S9) TA1535,[1]; AzP 0.0391 mg/plate,47.3±9
same,Revertant colonies per plate (+S9) TA1535,[1]; AzP 0.0781 mg/plate,50.5±4.9
same,Revertant colonies per plate (-S9) TA1535,[1]; AzP 0.0781 mg/plate,59±0.6
same,Revertant colonies per plate (+S9) TA1535,[1]; AzP 0.156 mg/plate,52.5±5.2
same,Revertant colonies per plate (-S9) TA1535,[1]; AzP 0.156 mg/plate,61.3±2.2
same,Revertant colonies per plate (+S9) TA1535,[1]; AzP 0.3125 mg/plate,51.7±3.6
same,Revertant colonies per plate (-S9) TA1535,[1]; AzP 0.3125 mg/plate,54.6±7.2
same,Revertant colonies per plate (+S9) TA1535,[1]; AzP 0.625 mg/plate,59.2±3.3
same,Revertant colonies per plate (-S9) TA1535,[1]; AzP 0.625 mg/plate,52.2±13.4
same,Revertant colonies per plate (+S9) TA1535,[1]; AzP 1.25 mg/plate,67±3.2
same,Revertant colonies per plate (+S9) TA1535,[1]; AzP 2.5 mg/plate,58±2.1
same,"Ames test result, TA1535 (|S9)",[1]; second S9 group,Negative
same,"Ames test result, TA102 (-S9)",[2]; -S9,Negative
same,Revertant colonies per plate (+S9) TA102,[2]; AzP 0.00245 mg/plate,219.7±6.9
same,Revertant colonies per plate (-S9) TA102,[2]; AzP 0.00245 mg/plate,141±4.4
same,Revertant colonies per plate (+S9) TA102,[2]; AzP 0.0049 mg/plate,225.7±4.5
same,Revertant colonies per plate (-S9) TA102,[2]; AzP 0.0049 mg/plate,142.3±4.7
same,Revertant colonies per plate (+S9) TA102,[2]; AzP 0.0098 mg/plate,215±4
same,Revertant colonies per plate (-S9) TA102,[2]; AzP 0.0098 mg/plate,140.3±7.9
same,Revertant colonies per plate (+S9) TA102,[2]; AzP 0.0195 mg/plate,230.7±2
same,Revertant colonies per plate (-S9) TA102,[2]; AzP 0.0195 mg/plate,139.5±5.6
same,Revertant colonies per plate (+S9) TA102,[2]; AzP 0.0391 mg/plate,212.2±9.2
same,Revertant colonies per plate (-S9) TA102,[2]; AzP 0.0391 mg/plate,138.3±8.5
same,Revertant colonies per plate (+S9) TA102,[2]; AzP 0.0781 mg/plate,233.3±9.8
same,Revertant colonies per plate (-S9) TA102,[2]; AzP 0.0781 mg/plate,152.7±11.3
same,Revertant colonies per plate (+S9) TA102,[2]; AzP 0.156 mg/plate,217.3±4.8
same,Revertant colonies per plate (+S9) TA102,[2]; AzP 0.3125 mg/plate,230.1±8.4
same,Revertant colonies per plate (+S9) TA102,[2]; AzP 0.625 mg/plate,217.4±7.3
same,"Ames test result, TA102 (|S9)",[2]; second S9 group,Negative
same,"histone acetylation (acetyl-histone H3, Western blot)",acetyl-histone H3,elevated histone acetylation
same,IC50,HDAC1,3440 ± 680 nM
same,"Ames test result, TA1537 (-S9)",[3]; -S9,Negative
same,Revertant colonies per plate (+S9) TA1537,[3]; AzP 0.00245 mg/plate,32.3±3
same,Revertant colonies per plate (-S9) TA1537,[3]; AzP 0.00245 mg/plate,15±0.5
same,Revertant colonies per plate (+S9) TA1537,[3]; AzP 0.0049 mg/plate,35.3±2.2
same,Revertant colonies per plate (-S9) TA1537,[3]; AzP 0.0049 mg/plate,10.7±0.9
same,Revertant colonies per plate (+S9) TA1537,[3]; AzP 0.0098 mg/plate,29.3±2.2
same,Revertant colonies per plate (-S9) TA1537,[3]; AzP 0.0098 mg/plate,10±0.6
same,Revertant colonies per plate (+S9) TA1537,[3]; AzP 0.0195 mg/plate,27.3±2.7
same,Revertant colonies per plate (-S9) TA1537,[3]; AzP 0.0195 mg/plate,10±2
same,Revertant colonies per plate (+S9) TA1537,[3]; AzP 0.0391 mg/plate,22.1±2.5
same,Revertant colonies per plate (-S9) TA1537,[3]; AzP 0.0391 mg/plate,11.8±6
same,Revertant colonies per plate (+S9) TA1537,[3]; AzP 0.0781 mg/plate,16±2.5
same,Revertant colonies per plate (-S9) TA1537,[3]; AzP 0.0781 mg/plate,12±4.9
same,Revertant colonies per plate (+S9) TA1537,[3]; AzP 0.156 mg/plate,18±1
same,Revertant colonies per plate (-S9) TA1537,[3]; AzP 0.156 mg/plate,14.7±2
same,"Ames test result, TA1537 (|S9)",[3]; second S9 group,Negative
same,IC50,Pan HDAC enzyme,1650 ± 103 nM
same,"Ames test result, TA98 (-S9)",[4]; -S9,Negative
same,Revertant colonies per plate (+S9) TA98,[4]; AzP 0.00245 mg/plate,59.7±3.8
same,Revertant colonies per plate (-S9) TA98,[4]; AzP 0.00245 mg/plate,42±4.6
same,Revertant colonies per plate (+S9) TA98,[4]; AzP 0.0049 mg/plate,58.3±4.7
same,Revertant colonies per plate (-S9) TA98,[4]; AzP 0.0049 mg/plate,29±5.7
same,Revertant colonies per plate (+S9) TA98,[4]; AzP 0.0098 mg/plate,56.3±3.4
same,Revertant colonies per plate (-S9) TA98,[4]; AzP 0.0098 mg/plate,24±5.4
same,Revertant colonies per plate (+S9) TA98,[4]; AzP 0.0195 mg/plate,59.7±0.7
same,Revertant colonies per plate (-S9) TA98,[4]; AzP 0.0195 mg/plate,33.7±3
same,Revertant colonies per plate (+S9) TA98,[4]; AzP 0.0391 mg/plate,62.7±2.3
same,Revertant colonies per plate (-S9) TA98,[4]; AzP 0.0391 mg/plate,33.7±2.8
same,Revertant colonies per plate (+S9) TA98,[4]; AzP 0.0781 mg/plate,56.3±2.2
same,Revertant colonies per plate (+S9) TA98,[4]; AzP 0.156 mg/plate,61±1.2
same,Revertant colonies per plate (+S9) TA98,[4]; AzP 0.3125 mg/plate,69.7±5.8
same,Revertant colonies per plate (+S9) TA98,[4]; AzP 0.625 mg/plate,64±2.9
same,"Ames test result, TA98 (|S9)",[4]; second S9 group,Negative
same,influence on cisplatin-reduced cell viability,IEC-6 cells,did not influence
same,Micronucleus Test result,male ICR mice,Negative
same,IC50,HDAC4,1970 ± 110 nM
same,"structure of intestinal mucosa, villus length and crypt depth (H&E)","C57BL/6 mice; 250 mg/kg/day group, days 3 and 5",restored
same,Relative mean body weight (day 0 = 100%),"C57BL/6 mice; day 5, AzP 50 mg/kg gavage days −1, 0, 1 + cisplatin 11 mg/kg",78.7 ± 4.7%
same,Relative mean body weight (day 0 = 100%),"C57BL/6 mice; day 5, AzP 100 mg/kg gavage days −1, 0, 1 + cisplatin 11 mg/kg",80.5 ± 3.4%
same,Relative mean body weight (day 0 = 100%),"C57BL/6 mice; day 5, AzP 250 mg/kg gavage days −1, 0, 1 + cisplatin 11 mg/kg",89.1 ± 8.1%
same,MCP-1 expression in intestine (IHC),"C57BL/6 mice; day 5, cisplatin 11 mg/kg",dose-dependently reduced
same,Serum IL-6 level (ELISA),"C57BL/6 mice; day 5, cisplatin 11 mg/kg",inhibit cisplatin-induced IL-6 production in a dose-dependent manner
same,TNF-α expression in intestine (IHC),"C57BL/6 mice; day 5, cisplatin 11 mg/kg",dose-dependently reduced
